Measurements: patent publication US8415115B2, “Reaction medium for methicillin-resistant Staphylococcus aureus (MRSA) bacteria” (Biomerieux, priority 2008, dated 2013)

Columns and labels:
[1] = system: Methicillin-resistant Staphylococcus aureus (MRSA); experiment: Detection of MRSA strains (colored colonies) on chromID MRSA based media with alpha-glucosidase substrates and antibiotics; format: cell-based; conditions: Example B, alpha-glucosidase substrates
Protocol: The media tested in the experiments hereinafter were media comprising the chromID MRSA medium (bioMérieux ref. 43 451) as basic medium, and comprising the following elements: • Medium T: chromID MRSA control medium (ref. 43 451), comprising in particular an X-N-methyl-alpha-glucoside substrate, at a concentration of 0.1 g/l, and Cefoxitin at 4 mg/1. • Medium S: medium T, also comprising an X-alpha-glucoside substrate, at a concentration of 25, 37, 45 or 50 mg/l. • Medium A: medium S (X-alpha-glucoside concentration: 45 mg/l), the Cefoxitin being substituted with Ceftriaxone, at a concentration of 1, 2, 4, 8, 16, 32 mg/l. • Medium B: medium S (X-alpha-glucoside concentration: 45 mg/l), the Cefoxitin being substituted with Cefotaxime at a concentration of 1, 2, 4, 8, 16, 32 mg/l. • Medium C: medium S (X-alpha-glucoside concentration: 45 mg/l), the Cefoxitin being substituted with Ertapenem at a concentration of 0.1, 0.25, 0.5, 0.75, 1 mg/l. • Medium D: medium S (X-alpha-glucoside concentration: 45 mg/l), the Cefoxitin being substituted with Cefoperazone at a concentration of 0.5, 1, 1.5, 2 mg/l. • Medium E: medium S (X-alpha-glucoside concentration: 45 mg/l), the Cefoxitin being substituted with Cefpodoxime at a concentration of 0.5, 1, 1.5, 2 mg/l. • Medium F: medium S (X-alpha-glucoside concentration: 45 mg/l), the Cefoxitin being substituted with a Cefoxitin/Cefotaxime concentration at the concentrations below:
• Medium G: medium S (X-alpha-glucoside concentration: 45 mg/l), the Cefoxitin being substituted with a Cefoxitin/Ceftriaxone combination at the concentrations below:
• Medium H: medium S (X-alpha-glucoside concentration: 45 mg/l), the Cefoxitin being substituted with a Cefoxitin/Ertapenem combination at the concentrations below:
• Medium I: medium S (X-alpha-glucoside concentration: 45 mg/l), the Cefoxitin being substituted with a Cefoxitin/Cefpodoxime combination at the concentrations below:
• Medium J: medium S (X-alpha-glucoside concentration: 45 mg/1), the Cefoxitin being substituted with a Cefoxitin/Cefoperazone combination at the concentrations below:
• Medium K: medium S (X-alpha-glucoside concentration: 45 mg/l), the Cefoxitin being substituted with a Cefoxitin/Cefotaxime combination, at the concentrations below, also comprising a mixture of inhibitors that favour the growth of Staphylococcus aureus.
• Medium L: medium S (X-alpha-glucoside concentration: 45 mg/l), the Cefoxitin being substituted with Cefdinir at a concentration of 0.25, 0.5, 1, 2, 4, 8 mg/l. • Medium M: medium S (X-alpha-glucoside concentration: 45 mg/l), the Cefoxitin being substituted with a Cefoxitin/Cefdinir combination at the concentrations below: […]
The strains detected correspond to the strains forming colored colonies on the medium.

[2] = system: MSSAs; experiment: Sub-inhibitory concentration: below the antibiotic concentration required for inhibition of MSSAs in a culture medium; format: cell-based, Staphylococcus aureus; conditions: culture medium such as chromID S. aureus medium
Protocol: The sub-inhibitory concentration is intended to mean a concentration below the concentration of antibiotic required for inhibition of MSSAs, in a culture medium suitable for searching for S. aureus using a biological sample, such as the chromID™ S. aureus medium (bioMerieux). This concentration is below approximately 3 mg/l in the case of Cefoxitin, approximately 2 mg/l in the case of Cefotaxime, approximately 1 mg/l in the case of Ertapenem, approximately 2 mg/l in the case of Cefoperazone, approximately 2 mg/l in the case of Cefpodoxime, and approximately 1 mg/l in the case of Cefdinir.

Row | SMILES | Sensitivity and specificity, MRSAs distinguished from MSSAs (in words) [1] | Sub-inhibitory concentration [2] [mg/L]
1 | CCN1CCN(C(=O)N[C@@H](C(=O)N[C@@H]2C(=O)N3C(C(=O)O)=C(CSc4nnnn4C)CS[C@H]23)c2ccc(O)cc2)C(=O)C1=O [Cefoperazone] | did not make it possible to obtain, on their own, a sensitivity and a specificity enabling MRSAs to be distinguished from MSSAs | 
2 | CO/N=C(\C(=O)N[C@@H]1C(=O)N2C(C(=O)O)=C(COC(C)=O)CS[C@H]12)c1csc(N)n1 [Cefotaxime] | did not make it possible to obtain, on their own, a sensitivity and a specificity enabling MRSAs to be distinguished from MSSAs | 
3 | CO[C@@]1(NC(=O)Cc2cccs2)C(=O)N2C(C(=O)O)=C(COC(N)=O)CS[C@@H]21 [Cefoxitin] |  | < 3
4 | CO/N=C(\C(=O)N[C@@H]1C(=O)N2C(C(=O)O)=C(CSc3nc(=O)c(=O)[nH]n3C)CS[C@H]12)c1csc(N)n1 [Ceftriaxone] | did not make it possible to obtain, on their own, a sensitivity and a specificity enabling MRSAs to be distinguished from MSSAs | 
5 | C[C@@H](O)[C@H]1C(=O)N2C(C(=O)O)=C(S[C@@H]3CN[C@H](C(=O)Nc4cccc(C(=O)O)c4)C3)[C@H](C)[C@H]12 [Ertapenem] | did not make it possible to obtain, on their own, a sensitivity and a specificity enabling MRSAs to be distinguished from MSSAs | 
